A short description of series [1]: Cyclodextrin (SBE-β-CD)/buffer apparent partition coefficient of CBZ. It is filed as physicochemical. The conditions noted are these: buffer pH 6.8, 37 °C. How it is done:
(§1) Additionally, for the sake of the reliable comparison of the partition within the micellar and cyclodextrin systems, the concentrations of the excipient (F127 or SBE-β-CD) on the X-axis were expressed in kg∙L^−1. From the results of the partition coefficients determinations, the thermodynamics of solubilization by F127 and SBE-β-CD was disclosed by the excess free Gibbs energy ( ΔGS37°C ) evaluation, using the equation:(12) ΔGS37°C=−RT·lnKexcipient/buf
(§2) In the case of cyclodextrins, the nonspecific interaction between the solute and the cavity of cyclodextrin takes place, and the solubilization process may be attributed to the partition of solutes from the aqueous buffer into the cyclodextrin cavity. In this work, the partition from the micellar pseudo phase (F127) to the aqueous buffer pH 6.8, as well as from SBE-β-CD to the buffer was studied using the plots of the linear dependences (Figure S4), plotted according to Equations (10) and (11). The calculations were conducted in two variants.

The nature of series [2]: In vitro permeability, Franz diffusion cell, regenerated cellulose membrane. Type of series: in vitro ADME. The conditions noted are these: 37 °C; for C0free (free CBZ concentration in the donor solution, C0free=C0·ffree): RC membrane experiment; for Papp at 5 h: pH 6.8, RC membrane. How it is done: (§3) The apparent permeability coefficients were measured at 37 °C with the help of a vertical-type Franz diffusion cell (PermeGear, Inc., Hellertown, PA, USA). The experimental setup was the same as it was described in our previous study, where the excess amount of the investigated substance was placed in glass cups with ground-in lids. The required volume of buffer pH 6.8 without and with a predetermined concentration of the excipient (F127 or SBE-β-CD in the present study) was added, and the suspension was mixed overnight and filtered to obtain a clear solution. The concentration of this solution was determined and used for the further calculation of the permeability coefficient. […] The membrane was mounted between the donor and receptor chambers of the Franz cell. The effective surface area of the membrane was 0.785 cm^2. Each experiment lasted 5 h. The donor solution was permanently mixing with a magnetic stirrer at a constant rate. The aliquots of the receptor solution (0.5 mL) were withdrawn every 30 min and promptly replaced with the same volume of the fresh buffer.
(§4) The apparent permeability coefficients were taken as the average values of no less than three replicas. […]
(§5) The authors underlined that when different excipients, such as cyclodextrins or micelle-forming polymers, are used, it is necessary to obtain “true” permeability values by a correction of permeability coefficients for the free drug concentration. In this study, the free drug concentration in the presence of F127 and SBE-β-CD was assessed indirectly through the equilibrium solubility experiments at all the excipient concentrations (Table 2).

Series [3] is described as follows: logP, partition of CBZ from water to 1-octanol. It is filed as physicochemical. Particulars: 1-octanol/water, pH 7.4; after conversion from the molar units to the mass units.
Series [4] in a line: Stability constant of CBZ/SBE-β-CD complex (Kc) from phase solubility diagram. Type of series: physicochemical. The conditions noted are these: buffer pH 6.8, 37 °C.
Series [5] in a line: Equilibrium solubility of CBZ, shake-flask method, HPLC. Particulars: phosphate buffer, aqueous buffer, thermodynamic from solid; pure buffer pH 6.8; 37.0±0.1 °C. Type of series: physicochemical.
Method: The experimental temperature of 37 °C corresponded to the standard temperature of a healthy human. […] The vials were continuously shaken in an air thermostat to achieve the equilibrium. After this, the suspensions were settled during no less than 6 h to avoid supersaturation [33]. […] The experimental results are presented as an average of at least three replicated experiments.
The samples of the solutions were analyzed via HPLC using the Shimadzu Prominence model LC-20 AD, equipped with a PDA detector and a C-18 column Luna® (150 mm × 4.6 mm i.d., 5 μm particle size, and 100 Å pore size) (Albert-Hahn-Str. 6-10, Duisburg, Germany). The column temperature was 40 °C. Eluent acetonitrile:water at a ratio of 40:60 v/v was used. An isocratic regime at a flow rate of 1 mL·min^−1 was applied. The injection volume was 20 μL.
Details of series [6]: method as in PMID 21415539. Particulars: water to 1-octanol; pH 7.4 of the aqueous phase; cited from earlier work.
The conditions of series [7]: cited from earlier work.
A short description of series [8]: In vitro permeability, Franz diffusion cell, polydimethylsiloxane–polycarbonate membrane. Particulars: 37 °C; for C0free (free CBZ concentration in the donor solution, C0free=C0·ffree): PDS membrane experiment; for Papp at 5 h: pH 6.8, PDS membrane. Type of series: in vitro ADME. How it is done: as §3, §4, §5
On the set-up of series [9]: method as in PMID 19403275. The conditions noted are these: 1.33 mmol·L^−1 (1%) F127 solution; 37 °C; cited from earlier work.
Series [10] is described as follows: Micelle (F127)/buffer apparent partition coefficient of CBZ. Type of series: physicochemical. The conditions noted are these: buffer pH 6.8, 37 °C. On the procedure:
as §1, §2

The nature of series [11]: CBZ/F127 association constant (Ka) from phase solubility diagram. Particulars: buffer pH 6.8, 37 °C. It is filed as physicochemical. The source says:
To this end, in order to assess the concentration of F127 in the micellar form, the difference between the total F127 (CF127) concentration and the CMC was used.
The CMC value of F127 (Section 3.1) was used to calculate F127 micellar concentrations as the differences between the total CF127 and the CMC.

Series [12] is described as follows: Viscosity of F127 and SBE-β-CD solutions, Vibro Viscometer. Type of series: physicochemical. The conditions noted are these: 37 °C. On the procedure: The viscosity of F127 and SBE-β-CD solutions at concentrations used for the permeability experiments (1.0 w/v%, 2.0 w/v%, and 3.0 w/v%) was measured with the help of SV series Vibro Viscometer (A&D Company Ltd., Tokyo, Japan) with a high accuracy of 1% (standard deviation).
In turn, with SBE-β-CD in the donor solution, the Pappcalc values are somewhat lower with RC and higher with PDS membranes than the experimental Papp values. These findings allow the proposal of additional mechanisms that influence permeability, going beyond the model approach which primarily relied on solubility for quantitatively predicting permeability. The underestimation of the permeability through the PDS membrane with SBE-β-CD can probably be attributed to the specific interaction of anionic cyclodextrin with PDS, as it was underlined above. In addition, as it was reported in [57], decreased diffusivity can be attributed to the increased viscosity of the donor solution upon the acceleration of the excipient concentration. […] Fischer et al. proposed that just a change in the viscosity of the aqueous donor compartment might be the reason of the decreased permeability of carboxyfluorescein in the non-ionic surfactant poloxamer 188. To support the obtained results, the dynamic viscosity […] of the dissolution medium was measured at the experimental temperature of 37 °C and listed in Table S4. As expected, the viscosity was increased both with F127 and SBE-β-CD in solution.

Where [13] appears, read: excipient concentration expressed in kg∙L^−1.
[14] abbreviates: excipient concentration expressed in molarity.
[15] abbreviates: F127 1.33 mmol·L^−1, buffer pH 6.8, read-out: Papp (apparent permeability coefficient).
[16] abbreviates: F127 1.83 mmol·L^−1, buffer pH 6.8, read-out: Papp (apparent permeability coefficient).
The mark [17] stands for this setting: F127 2.30 mmol·L^−1, buffer pH 6.8, read-out: Papp (apparent permeability coefficient).
Where [18] appears, read: SBE-β-CD 6.89 mmol·L^−1, buffer pH 6.8, read-out: Papp (apparent permeability coefficient).
Setting [19] is: SBE-β-CD 13.78 mmol·L^−1, buffer pH 6.8, read-out: Papp (apparent permeability coefficient).
[20] abbreviates: SBE-β-CD 20.67 mmol·L^−1, buffer pH 6.8, read-out: Papp (apparent permeability coefficient).
Where [21] appears, read: pure buffer pH 6.8 (0 mmol·L^−1 excipient), read-out: Pabs (absolute permeability coefficient, Pabs=J/C0free).
[22] abbreviates: pure buffer pH 6.8 (0 mmol·L^−1 excipient), read-out: Papp (apparent permeability coefficient).
The mark [23] stands for this setting: expressed per mass of excipient.

In brackets after ≈: the same amount, converted by molar mass. Several values for one entry are separate records, joined by “and”; a condition that tells them apart may be missing. Equal entries are not always repeated. Where two headings read alike, the source gives them in different places.

The text below walks through data of PMC10893053 (Pharmaceutics, 2024).

As to `NC(=O)N1c2ccccc2C=Cc2ccccc21` [CBZ, carbamazepine], the “Partition coefficient KSBE-β-CD/buf” value is given as 205.11 (±0.51) in series [1] (setting [13]) and 297.67 (±0.75) in series [1] (setting [14]). For the same compound, the “C0free (free CBZ concentration in the donor solution, C0free=C0·ffree)” value in [2] (F127 1.33 mmol·L^−1) was found to be 473 µM; in [2] (F127 1.83 mmol·L^−1) it was 377 µM; in [2] (F127 2.30 mmol·L^−1), 473 µM; in [2] (SBE-β-CD 6.89 mmol·L^−1), 446 µM; in series [2] (SBE-β-CD 13.78 mmol·L^−1), 388 µM; in series [2] (SBE-β-CD 20.67 mmol·L^−1), 559 µM. Moreover, the “C0free (free CBZ concentration in the donor solution, C0free=C0·ffree)” value worked out at 464 µM in [8] (F127 1.33 mmol·L^−1); 378 µM in series [8] (F127 1.83 mmol·L^−1); 312 µM in [8] (F127 2.30 mmol·L^−1); 440 µM in [8] (SBE-β-CD 6.89 mmol·L^−1); 514 µM in [8] (SBE-β-CD 13.78 mmol·L^−1); 500 µM in series [8] (SBE-β-CD 20.67 mmol·L^−1). The Papp at 5 h in series [2] (setting [15]) worked out at 32.2 ×10⁻⁶ cm/s; in [2] (setting [16]), 26.6 ×10⁻⁶ cm/s; in series [2] (setting [17]), 20.3 ×10⁻⁶ cm/s; in [2] (setting [18]), 20.5 ×10⁻⁶ cm/s; in series [2] (setting [19]) it was 13.4 ×10⁻⁶ cm/s; in series [2] (setting [20]) it was 12.4 ×10⁻⁶ cm/s. Also, the Papp at 5 h in series [2] (setting [21]) was 55.5 ×10⁻⁶ cm/s; in series [2] (setting [22]), 55.5 ×10⁻⁶ cm/s; in series [8] (setting [15]) it was 0.286 ×10⁻⁶ cm/s; in [8] (setting [16]), 0.253 ×10⁻⁶ cm/s; in [8] (setting [17]) it was 0.214 ×10⁻⁶ cm/s; in series [8] (setting [18]), 0.127 ×10⁻⁶ cm/s. The Papp at 5 h in series [8] (setting [19]) is 0.0796 ×10⁻⁶ cm/s; in series [8] (setting [20]), 0.0565 ×10⁻⁶ cm/s; in series [8] (setting [21]) it was 0.567 ×10⁻⁶ cm/s; in [8] (setting [22]) it was 0.567 ×10⁻⁶ cm/s. For the same compound, the log partition coefficient (logP) in series [3] was found to be 3.47. Further, the “Apparent stability constant of CBZ/SBE-β-CD complex (Kc)” value in series [4] was 395.9 (±15.8) M^−1 and 395.9 M^−1; in series [4] (setting [23]), 247.5 (±5.23) L∙kg^−1. In series [5], the thermodynamic solubility is 830 µM (≈ 196 µg/mL). Also, the “P (partition coefficient water/1-octanol)” value in [6] is listed as 380.19. The “Stability constant of CBZ with SBE-β-CD” value was 498.04 M⁻¹ in series [7] (unbuffered double distilled water, 30 °C, ref 48 Jain et al.); 1035 M⁻¹ in series [7] (undefined pH and temperature, ref 49 Smith et al.). Moreover, the “Solubility of CBZ” value in [9] was 1430 µM. The “Partition coefficient KF127/buf” value in [10] (setting [13]) is reported as 58.54 (±0.86); in series [10] (setting [14]) it was 737.63 (±10.90). Moreover, the “CBZ/F127 micellar association constant (Ka)” value in series [11] was 2374.2 (±118.7) M^−1; in series [11] (setting [23]), 65.5 (±3.27) L∙kg^−1.
Consider “sulfobutylether-β-cyclodextrin [SBE-β-CD]”, for which the values for the Viscosity in [12] (SBE-β-CD 6.89 mmol·L-1 donor solution), in [12] (SBE-β-CD 13.78 mmol·L-1 donor solution) and in [12] (SBE-β-CD 20.67 mmol·L-1 donor solution) were 0.72 mPa·s, 0.75 mPa·s and 0.8 mPa·s, respectively.

As usually defined, the logP is the decadic logarithm of the partition coefficient of the neutral form, usually between octanol and water. By solubility (thermodynamic) is commonly meant solubility found after equilibrating the solid with the medium.
